This is an account of results in PubChem BioAssay AID180 (DTP/NCI, 2004).

The term T/C denotes the result in the treated group divided by that in the control group, in per cent.

Molecules are shown by their SMILES. Values joined by “and” are separate entries in the source; they are usually repeats but may differ in a detail not shown here. Equal values may be shown once.

The subject of the assay is BDF1 mice, Adenocarcinoma 755 s.c., tumor weight T/C. Nature of the assay: NCI In Vivo Anticancer Drug Screen. Data for tumor model Adenocarcinoma 755 (subcutaneous) in B6D2F1 (BDF1) mice. To be noted: endpoint: mean tumor weight, higher = larger tumour. Put shortly: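 Values express treated (T) relative to vehicle-dosed control (C) animals, based on survival or tumour size measured after compound treatment of mice bearing a transplanted tumour.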

The mark [1] stands for this setting: dose: 6.2 mg/kg/injection, schedule: Q01DX011 (ip), vehicle: methylcellulose (MC).
Where [2] appears, read: dose: 12.5 mg/kg/injection, schedule: Q01DX011 (ip), vehicle: methylcellulose (MC).
The mark [3] stands for this setting: dose: 25.0 mg/kg/injection, schedule: Q01DX011 (ip), vehicle: methylcellulose (MC).
The mark [4] stands for this setting: dose: 1.5 mg/kg/injection, schedule: Q01DX011 (ip), vehicle: methylcellulose (MC).
Setting [5] is: dose: 3.1 mg/kg/injection, schedule: Q01DX011 (ip), vehicle: methylcellulose (MC).
Setting [6] is: dose: 0.25 mg/kg/injection, schedule: Q01DX011 (ip), vehicle: saline.
[7] abbreviates: dose: 0.5 mg/kg/injection, schedule: Q01DX011 (ip), vehicle: saline.
The mark [8] stands for this setting: dose: 1.0 mg/kg/injection, schedule: Q01DX011 (ip), vehicle: saline.

With `CCNS(=O)(=O)c1ncnc2nc[nH]c12`, the T/C (dose: 6.0 mg/kg/injection, schedule: Q01DX011 (ip), vehicle: other) is 94 % of control; the T/C under setting [1] is 66 % of control; the T/C (dose: 12.0 mg/kg/injection, schedule: Q01DX011 (ip), vehicle: other) is 32 % of control; the T/C under setting [2] was 36 % of control; the T/C under setting [3] is 7 % of control and 10 % of control; the T/C (dose: 25.0 mg/kg/injection, schedule: Q01DX011 (ip), vehicle: other) was 15 % of control. Moreover, the T/C (dose: 50.0 mg/kg/injection, schedule: Q01DX011 (ip), vehicle: other) is 5 % of control; the T/C (dose: 100.0 mg/kg/injection, schedule: Q01DX011 (ip), vehicle: other) is 10 % of control; the T/C (dose: 150.0 mg/kg/injection, schedule: Q01DX011 (ip), vehicle: other) is 5 % of control.
Consider `C[C@]12C=CC(=O)C=C1CC[C@H]1[C@@H]3C[C@@H](O)[C@](O)(C(=O)CO)[C@@]3(C)C[C@H](O)[C@@]12F`, for which the T/C (dose: 1.5 mg/kg/injection, schedule: Q01DX011 (sc), vehicle: steriod suspending solution) was 98 % of control; the T/C (dose: 3.0 mg/kg/injection, schedule: Q01DX011 (sc), vehicle: steriod suspending solution) is 79 % of control; the T/C (dose: 3.12 mg/kg/injection, schedule: Q01DX011 (sc), vehicle: steriod suspending solution) was 77 % of control; the T/C (dose: 6.0 mg/kg/injection, schedule: Q01DX011 (sc), vehicle: steriod suspending solution) was 41 % of control; the T/C (dose: 12.5 mg/kg/injection, schedule: Q01DX011 (sc), vehicle: steriod suspending solution) was 32 % of control and 44 % of control and 53 % of control.
As for `CC(=O)Oc1ccc2c(c1)CC[C@@H]1[C@@H]2CC[C@@]2(C)[C@H]1CC[C@]2(C)OC(C)=O`, the T/C runs as follows: (dose: 31.0 mg/kg/injection, schedule: Q01DX011 (sc), vehicle: steriod suspending solution) 76 % of control; (dose: 62.5 mg/kg/injection, schedule: Q01DX011 (sc), vehicle: steriod suspending solution) 64 % of control; (dose: 125.0 mg/kg/injection, schedule: Q01DX011 (sc), vehicle: steriod suspending solution) 71 % of control; (dose: 250.0 mg/kg/injection, schedule: Q01DX011 (sc), vehicle: steriod suspending solution) 44 % of control.
In the case of `CC(C)Sc1nc(N)nc2c1ncn2C1OC(CO)C(O)C1O` (centres undefined), the T/C reads like this: (dose: 0.38 mg/kg/injection, schedule: Q01DX011 (ip), vehicle: methylcellulose (MC)) 48 % of control; (dose: 0.75 mg/kg/injection, schedule: Q01DX011 (ip), vehicle: methylcellulose (MC)) 60 % of control; under setting [4], 40 % of control; (dose: 3.0 mg/kg/injection, schedule: Q01DX011 (ip), vehicle: methylcellulose (MC)) 36 % of control; under setting [5], 3 % of control.
Regarding `O=c1cc2[nH]c(O)cn2c(=O)[nH]1`, the T/C is 95 % of control and 73 % of control (dose: 30.0 mg/kg/injection, schedule: Q01DX011 (ip), vehicle: carboxymethylcellulose (CMC)); 47 % of control (dose: 120.0 mg/kg/injection, schedule: Q01DX011 (ip), vehicle: carboxymethylcellulose (CMC)); 64 % of control (dose: 240.0 mg/kg/injection, schedule: Q01DX011 (ip), vehicle: carboxymethylcellulose (CMC)).
For `COC(=O)C1=COC(C)C2CN3CCc4c([nH]c5cc(OC)ccc45)C3CC12` (centres undefined), the T/C is 116 % of control (dose: 22.0 mg/kg/injection, schedule: Q01DX011 (ip), vehicle: other); 98 % of control (dose: 44.0 mg/kg/injection, schedule: Q01DX011 (ip), vehicle: other); 80 % of control (dose: 87.5 mg/kg/injection, schedule: Q01DX011 (ip), vehicle: other).
On to `CC(=O)c1cccc(NC2C(N)C(NC(=O)N(C)C)(C(C)O)C(C)(O)C2(O)COC(=O)c2c(C)cccc2O)c1` (centres undefined), for which the T/C runs as follows: under setting [6], 36 % of control; under setting [7], 83 % of control; under setting [8], 67 % of control; (dose: 2.0 mg/kg/injection, schedule: Q01DX011 (ip), vehicle: saline) 24 % of control.
Consider `CO[C@H](C(=O)[C@@H](O)[C@@H](C)O)[C@@H]1Cc2cc3cc(OC4CC(OC5CC(O)C(O)C(C)O5)C(O)C(C)O4)c(C)c(O)c3c(O)c2C(=O)[C@H]1OC1CC(OC2CC(OC3CC(C)(O)C(O)C(C)O3)C(O)C(C)O2)C(O)C(C)O1` (some centres undefined), for which the T/C was 59 % of control under setting [6]; 72 % of control (dose: 0.25 mg/kg/injection, schedule: Q01DX011 (ip), vehicle: water); 57 % of control under setting [7]; 16 % of control (dose: 0.75 mg/kg/injection, schedule: Q01DX011 (ip), vehicle: water); 11 % of control under setting [8].
`O=C=NC(c1ccccc1)(c1ccccc1)c1ccccc1`: the T/C reads like this: (dose: 7.0 mg/kg/injection, schedule: Q01DX011 (ip), vehicle: carboxymethylcellulose (CMC)) 102 % of control; (dose: 14.0 mg/kg/injection, schedule: Q01DX011 (ip), vehicle: carboxymethylcellulose (CMC)) 103 % of control; (dose: 28.0 mg/kg/injection, schedule: Q01DX011 (ip), vehicle: carboxymethylcellulose (CMC)) 86 % of control and 87 % of control; (dose: 112.0 mg/kg/injection, schedule: Q01DX011 (ip), vehicle: carboxymethylcellulose (CMC)) 71 % of control.
Take `Nc1nc(SCc2cccc(Br)c2)c2ncn(C3OC(CO)C(O)C3O)c2n1` (centres undefined): the T/C runs as follows: under setting [4], 84 % of control; under setting [5], 62 % of control; under setting [1], 12 % of control and 24 % of control; under setting [2], 1 % of control; under setting [3], 2 % of control.
Take `O=[N+]([O-])c1ccc(O)c([N+](=O)[O-])c1`: the T/C by setting is: (dose: 3.35 mg/kg/injection, schedule: Q01DX011 (ip), vehicle: carboxymethylcellulose (CMC)) 60 % of control; (dose: 3.92 mg/kg/injection, schedule: Q01DX011 (ip), vehicle: carboxymethylcellulose (CMC)) 57 % of control; (dose: 6.7 mg/kg/injection, schedule: Q01DX011 (ip), vehicle: carboxymethylcellulose (CMC)) 92 % of control; (dose: 7.85 mg/kg/injection, schedule: Q01DX011 (ip), vehicle: carboxymethylcellulose (CMC)) 54 % of control; (dose: 13.4 mg/kg/injection, schedule: Q01DX011 (ip), vehicle: carboxymethylcellulose (CMC)) 64 % of control; (dose: 15.7 mg/kg/injection, schedule: Q01DX011 (ip), vehicle: carboxymethylcellulose (CMC)) 53 % of control. The T/C runs as follows: (dose: 26.8 mg/kg/injection, schedule: Q01DX011 (ip), vehicle: carboxymethylcellulose (CMC)) 91 % of control; (dose: 31.4 mg/kg/injection, schedule: Q01DX011 (ip), vehicle: carboxymethylcellulose (CMC)) 78 % of control.
Turning to `OCCNc1ncnc2c1ncn2C1CCCO1` (centres undefined), the T/C runs as follows: (dose: 50.0 mg/kg/injection, schedule: Q01DX011 (ip), vehicle: saline) 174 % of control; (dose: 100.0 mg/kg/injection, schedule: Q01DX011 (ip), vehicle: saline) 96 % of control; (dose: 200.0 mg/kg/injection, schedule: Q01DX011 (ip), vehicle: saline) 48 % of control.
In the case of `COC1CC(O)C(COS(C)(=O)=O)O1` (centres undefined), the T/C is, setting by setting: (dose: 25.0 mg/kg/injection, schedule: Q01DX011 (ip), vehicle: saline) 100 % of control; (dose: 75.0 mg/kg/injection, schedule: Q01DX011 (ip), vehicle: saline) 114 % of control; (dose: 225.0 mg/kg/injection, schedule: Q01DX011 (ip), vehicle: saline) 113 % of control.
`COC(=O)[C@@H]1c2cc3c(c(O)c2[C@@H](OC2OC(C)C(OC)C(C)(OC)C2OC)C[C@]1(C)O)C(=O)c1c(O)cc2c(c1C3=O)O[C@H]1O[C@]2(C)[C@H](O)[C@@H](N(C)C)[C@@H]1O` (some centres undefined): the T/C (dose: 0.2 mg/kg/injection, schedule: Q01DX011 (ip), vehicle: carboxymethylcellulose (CMC)) was 83 % of control; the T/C (dose: 0.3 mg/kg/injection, schedule: Q01DX011 (ip), vehicle: carboxymethylcellulose (CMC)) is 89 % of control; the T/C (dose: 0.3 mg/kg/injection, schedule: Q01DX011 (ip), vehicle: saline) is 179 % of control; the T/C (dose: 0.44 mg/kg/injection, schedule: Q01DX011 (ip), vehicle: carboxymethylcellulose (CMC)) is 57 % of control; the T/C (dose: 0.44 mg/kg/injection, schedule: Q01DX011 (ip), vehicle: saline) was 113 % of control; the T/C (dose: 0.67 mg/kg/injection, schedule: Q01DX011 (ip), vehicle: carboxymethylcellulose (CMC)) is 99 % of control. The T/C (dose: 1.0 mg/kg/injection, schedule: Q01DX011 (ip), vehicle: carboxymethylcellulose (CMC)) was 103 % of control.
Consider `CCOC(=O)/C(C)=N\Nc1cc(Cl)nc(N)n1`, for which the T/C (dose: 112.0 mg/kg/injection, schedule: Q01DX011 (ip), vehicle: methylcellulose (MC)) is 200 % of control.
